Test results reported in patent publication US6103709A (priority 1998, dated 2000).

What was measured:
[1] = test system: vitamin D-deficient chick; experiment: Bone Ca2+ mobilizing activity (BCM) in vitamin D-deficient chick; type: in vivo; conditions: vitamin D-deficient chick, i.m.
[2] = biological target: T1, human vitamin D-binding protein (hDBP) (Homo sapiens, UniProt P02774); experiment: Relative Competitive Index assay, vitamin D-binding protein
T1 sequence (P02774 17-474): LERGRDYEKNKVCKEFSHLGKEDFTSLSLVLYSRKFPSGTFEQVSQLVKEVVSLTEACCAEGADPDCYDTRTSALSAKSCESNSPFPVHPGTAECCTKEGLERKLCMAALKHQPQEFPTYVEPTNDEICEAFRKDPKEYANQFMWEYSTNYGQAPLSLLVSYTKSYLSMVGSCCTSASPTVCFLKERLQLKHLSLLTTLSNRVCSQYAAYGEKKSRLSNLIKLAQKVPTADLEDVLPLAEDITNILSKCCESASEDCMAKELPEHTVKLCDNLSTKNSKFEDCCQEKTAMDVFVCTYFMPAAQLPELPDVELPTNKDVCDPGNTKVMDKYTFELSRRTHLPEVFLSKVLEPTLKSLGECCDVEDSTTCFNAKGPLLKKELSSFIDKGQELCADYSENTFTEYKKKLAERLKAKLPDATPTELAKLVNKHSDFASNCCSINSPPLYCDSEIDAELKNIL
Excerpt: The compared analogs are 14α,15α-methano-1α,25(OH)2 D3 (LO), 22(m(dimethylhydroxymethyl)phenyl)-23,24,25,26,27-pentanor-1α- OH-D3 (EV) and (22R)-1,25(OH)2 -22,23,diene-D3 (HR), all conformationally flexible genomic agonists. By definition the RCI for 1α,25(OH)2 D3 is set to 100%. The data seen in FIG. 7 represent the mean of three determinations.
Vitamin D-Binding Protein Assay Relative Competitive Index
This example describes a Relative Competitive Index Assay used for determination of analogs binding affinity to vitamin D-binding protein.
Phase separation was then obtained by the addition of 0.5 ml of cold dextran-coated charcoal.
The data was plotted as [competitor]/[[^3 H]25(OH)D3 ] vs. 1/[fraction bound]. The RCI was calculated as [slope of competitor]/[slopefor 25(OH)D3 ]×100. Results are seen in FIG. 7. Although each analog was assayed in competition with [^3 H]25(OH)D3, the data are expressed as relative to the binding of 1α,25(OH)2 D3, with its RCI set to 100.

VDRmem = experiment: Rapid response (summary classification); conditions: Yes/No, Tables 1 and 6
rapid responses (VDRmem) = experiment: Antagonist function (summary classification); conditions: Yes/No, Tables 1 and 6

C=C1/C(=C\C=C2/CCC[C@]3(C)[C@@H]([C@H](C)CCCC(C)(C)O)C[C@@H]4C[C@@]243)C[C@@H](O)C[C@@H]1O [LO]
BCM (in words) [1]: highly effective stimulator of bone Ca^2+ mobilizing activity (BCM) | Binding to DBP relative to 1α,25(OH)2 D3 (RCI, FIG. 7) ([2]; 1α,25(OH)2 D3 = 100%, mean of three determinations): 60% | Vit D Binding Protein (RCI) ([2]; RCI of 1α,25(OH)2 D3 set to 100, 4° C., pH 7.4): 60 | DBP binding (in words) ([2]; compared with 1α,25(OH)2 D3): lower than 1α,25(OH)2 D3 | Rapid Response (VDRmem): Yes | Antagonist (rapid responses (VDRmem)): No
